These results are taken from patent US20250171438A1 (Agios Pharmaceuticals, Inc., priority 2022, published 2025).

This assay addresses T1, human PAH with the R408W mutation (Homo sapiens, UniProt P00439, R408W).
T1 construct: expressed in transfected cells
T1 sequence (P00439 1-452 R408W): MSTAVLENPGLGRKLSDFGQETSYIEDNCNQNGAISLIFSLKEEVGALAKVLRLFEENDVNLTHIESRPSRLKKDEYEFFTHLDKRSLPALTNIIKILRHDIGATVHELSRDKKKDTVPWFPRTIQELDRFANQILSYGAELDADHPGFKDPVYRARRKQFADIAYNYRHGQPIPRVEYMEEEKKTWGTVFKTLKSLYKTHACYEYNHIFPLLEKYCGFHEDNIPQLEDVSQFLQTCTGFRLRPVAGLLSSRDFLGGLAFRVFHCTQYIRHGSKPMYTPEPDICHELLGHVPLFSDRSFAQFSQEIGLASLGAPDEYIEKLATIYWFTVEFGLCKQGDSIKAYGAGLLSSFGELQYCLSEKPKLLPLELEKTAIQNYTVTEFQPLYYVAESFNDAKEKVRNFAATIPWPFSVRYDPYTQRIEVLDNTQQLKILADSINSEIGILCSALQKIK
As to the kind of experiment: Cell Based Phenylalanine Flux Assay. The settings on record: A375 cells expressing human R408W PAH; 24 hrs compound incubation; 13C-Tyrosine by LC-MS; average where tested multiple times; read-out: AC50.

For `Cn1cc(C(=O)N2CCc3[nH]cnc3[C@H]2c2nc3ccccc3s2)c(C(F)F)n1` [Example 1821], the AC50 (as a rule, the midpoint of the concentration-response curve, whichever way the signal moves) is under 0.5 µM.

Regarding `Cn1cc(C(=O)N2CCc3[nH]cnc3[C@@H]2c2nc3ccccc3s2)c(C(F)F)n1` [Example 1822, (R)-(4-(benzo[d]thiazol-2-yl)-6,7-dihydro-1H-imidazo[4,5-c]pyridin-5(4H)-yl)(3-(difluoromethyl)-1-methyl-1H-pyrazol-4-yl)methanone], the AC50 lay in the range of 1 to 5 µM.

With `O=C(c1nnc(-c2cnn(C(F)F)c2)o1)N1CCc2[nH]cnc2[C@@H]1c1nc2c(F)cccc2s1` [Example 1823, (R)-(5-(1-(difluoromethyl)-1H-pyrazol-4-yl)-1,3,4-oxadiazol-2-yl)(4-(4-fluorobenzo[d]thiazol-2-yl)-6,7-dihydro-1H-imidazo[4,5-c]pyridin-5(4H)-yl)methanone], the AC50 fell in the range of 1 to 5 µM.

As for `O=C(c1nnc(-c2cnn(C(F)F)c2)o1)N1CCc2[nH]cnc2[C@H]1c1nc2c(F)cccc2s1` [Example 1824, (S)-(5-(1-(difluoromethyl)-1H-pyrazol-4-yl)-1,3,4-oxadiazol-2-yl)(4-(4-fluorobenzo[d]thiazol-2-yl)-6,7-dihydro-1H-imidazo[4,5-c]pyridin-5(4H)-yl)methanone], the AC50 is under 0.5 µM.

For `Cn1ccc(-c2nnc(C(=O)N3CCc4[nH]cnc4[C@@H]3c3nc4c(F)cccc4s3)o2)n1` [Example 1825, (R)-(4-(4-fluorobenzo[d]thiazol-2-yl)-6,7-dihydro-1H-imidazo[4,5-c]pyridin-5(4H)-yl)(5-(1-methyl-1H-pyrazol-3-yl)-1,3,4-oxadiazol-2-yl)methanone], the AC50 is 0.5 to 1 µM.

`Cn1ccc(-c2nnc(C(=O)N3CCc4[nH]cnc4[C@H]3c3nc4c(F)cccc4s3)o2)n1` [Example 1826, (S)-(4-(4-fluorobenzo[d]thiazol-2-yl)-6,7-dihydro-1H-imidazo[4,5-c]pyridin-5(4H)-yl)(5-(1-methyl-1H-pyrazol-3-yl)-1,3,4-oxadiazol-2-yl)methanone]: the half-maximal activity concentration (AC50) was under 0.5 µM.

With `O=C(c1nnc(-c2cnn(C3CCC3)c2)o1)N1CCc2[nH]cnc2[C@@H]1c1nc2ccccc2s1` [Example 1827, (R)-(4-(benzo[d]thiazol-2-yl)-6,7-dihydro-1H-imidazo[4,5-c]pyridin-5(4H)-yl)(5-(1-cyclobutyl-1H-pyrazol-4-yl)-1,3,4-oxadiazol-2-yl)methanone], the AC50 was in the range of 1 to 5 µM.

Take `O=C(c1nnc(-c2cnn(C3CCC3)c2)o1)N1CCc2[nH]cnc2[C@H]1c1nc2ccccc2s1` [Example 1828]: the AC50 was under 0.5 µM.

Take `O=C(c1nnc(-c2ccc(C(F)(F)F)cn2)o1)N1CCc2[nH]cnc2[C@@H]1c1nc2ccccc2s1` [Example 1829, (R)-(4-(benzo[d]thiazol-2-yl)-6,7-dihydro-1H-imidazo[4,5-c]pyridin-5(4H)-yl)(5-(5-(trifluoromethyl)pyridin-2-yl)-1,3,4-oxadiazol-2-yl)methanone]: the AC50 lay in the range of 1 to 5 µM.

In the case of `O=C(c1nnc(-c2ccc(C(F)(F)F)cn2)o1)N1CCc2[nH]cnc2[C@H]1c1nc2ccccc2s1` [Example 1830], the AC50 lay in the range of 0.5 to 1 µM.

On to `O=C(c1oc(COC(F)(F)F)nc1C(F)F)N1CCc2[nH]cnc2[C@H]1c1nc2ccccc2s1` [Example 1831], for which the AC50 was under 0.5 µM.

For the compound `O=C(c1oc(COC(F)(F)F)nc1C(F)F)N1CCc2[nH]cnc2[C@@H]1c1nc2ccccc2s1` [Example 1832, (R)-(4-(benzo[d]thiazol-2-yl)-6,7-dihydro-1H-imidazo[4,5-c]pyridin-5(4H)-yl)(4-(difluoromethyl)-2-((trifluoromethoxy)methyl)oxazol-5-yl)methanone], the AC50 was in the range of 1 to 5 µM.

In the case of `CC(C)(F)c1nnc(C(=O)N2CCc3[nH]cnc3[C@@H]2c2nc3ccccc3s2)o1` [Example 1833, (R)-(4-(benzo[d]thiazol-2-yl)-6,7-dihydro-1H-imidazo[4,5-c]pyridin-5(4H)-yl)(5-(2-fluoropropan-2-yl)-1,3,4-oxadiazol-2-yl)methanone], the AC50 was in the range of 1 to 5 µM.

In the case of `CC(C)(F)c1nnc(C(=O)N2CCc3[nH]cnc3[C@H]2c2nc3ccccc3s2)o1` [Example 1834], the AC50 was under 0.5 µM.

As to `CC(C)(F)c1nnc(C(=O)N2CCc3[nH]cnc3[C@@H]2c2nc3c(F)cccc3s2)o1` [Example 1835, (R)-(4-(4-fluorobenzo[d]thiazol-2-yl)-6,7-dihydro-1H-imidazo[4,5-c]pyridin-5(4H)-yl)(5-(2-fluoropropan-2-yl)-1,3,4-oxadiazol-2-yl)methanone], the AC50 lay in the range of 1 to 5 µM.

On to `CC(C)(F)c1nnc(C(=O)N2CCc3[nH]cnc3[C@H]2c2nc3c(F)cccc3s2)o1` [Example 1836, (S)-(4-(4-fluorobenzo[d]thiazol-2-yl)-6,7-dihydro-1H-imidazo[4,5-c]pyridin-5(4H)-yl)(5-(2-fluoropropan-2-yl)-1,3,4-oxadiazol-2-yl)methanone], for which the AC50 was under 0.5 µM.

Turning to `O=C(C1CN(c2ccc(F)cn2)C1)N1CCc2[nH]cnc2[C@H]1c1nc2ccccc2s1` [Example 1837], the AC50 was in the range of 1 to 5 µM.

Take `O=C(C1CN(c2ccc(F)cn2)C1)N1CCc2[nH]cnc2[C@@H]1c1nc2ccccc2s1` [Example 1838, (R)-(4-(benzo[d]thiazol-2-yl)-6,7-dihydro-1H-imidazo[4,5-c]pyridin-5(4H)-yl)(1-(5-fluoropyridin-2-yl)azetidin-3-yl)methanone]: the AC50 is over 5 µM.

With `Cn1nccc1C(=O)N1CCc2[nH]cnc2[C@H]1c1nc2ccccc2s1` [Example 1839], the AC50 is under 0.5 µM.

On to `Cn1nccc1C(=O)N1CCc2[nH]cnc2[C@@H]1c1nc2ccccc2s1` [Example 1840, (R)-(4-(benzo[d]thiazol-2-yl)-6,7-dihydro-1H-imidazo[4,5-c]pyridin-5(4H)-yl)(1-methyl-1H-pyrazol-5-yl)methanone], for which the AC50 was over 5 µM.

On to `Cn1cc(C(=O)N2CCc3[nH]cnc3[C@H]2c2nc3c(F)cccc3s2)c(C(F)F)n1` [Example 1841, (S)-(3-(difluoromethyl)-1-methyl-1H-pyrazol-4-yl)(4-(4-fluorobenzo[d]thiazol-2-yl)-6,7-dihydro-1H-imidazo[4,5-c]pyridin-5(4H)-yl)methanone], for which the AC50 was under 0.5 µM.

Consider `Cn1cc(C(=O)N2CCc3[nH]cnc3[C@@H]2c2nc3c(F)cccc3s2)c(C(F)F)n1` [Example 1842, (R)-(3-(difluoromethyl)-1-methyl-1H-pyrazol-4-yl)(4-(4-fluorobenzo[d]thiazol-2-yl)-6,7-dihydro-1H-imidazo[4,5-c]pyridin-5(4H)-yl)methanone], for which the AC50 is 1 to 5 µM.

`O=C(c1nnc(-c2cnn(CC(F)(F)F)c2)o1)N1CCc2[nH]cnc2[C@@H]1c1nc2c(F)cccc2s1` [Example 1843, (R)-(4-(4-fluorobenzo[d]thiazol-2-yl)-6,7-dihydro-1H-imidazo[4,5-c]pyridin-5(4H)-yl)(5-(1-(2,2,2-trifluoroethyl)-1H-pyrazol-4-yl)-1,3,4-oxadiazol-2-yl)methanone]: the AC50 fell in the range of 1 to 5 µM.

Consider `O=C(c1nnc(-c2cnn(CC(F)(F)F)c2)o1)N1CCc2[nH]cnc2[C@H]1c1nc2c(F)cccc2s1` [Example 1844, (S)-(4-(4-fluorobenzo[d]thiazol-2-yl)-6,7-dihydro-1H-imidazo[4,5-c]pyridin-5(4H)-yl)(5-(1-(2,2,2-trifluoroethyl)-1H-pyrazol-4-yl)-1,3,4-oxadiazol-2-yl)methanone], for which the AC50 was in the range of 0.5 to 1 µM.

Consider `Cc1c(-c2nnc(C(=O)N3CCc4[nH]cnc4[C@H]3c3nc4ccccc4s3)o2)cnn1C` [Example 1845], for which the AC50 was under 0.5 µM.

As for `Cc1c(-c2nnc(C(=O)N3CCc4[nH]cnc4[C@@H]3c3nc4ccccc4s3)o2)cnn1C` [Example 1846, (R)-(4-(benzo[d]thiazol-2-yl)-6,7-dihydro-1H-imidazo[4,5-c]pyridin-5(4H)-yl)(5-(1,5-dimethyl-1H-pyrazol-4-yl)-1,3,4-oxadiazol-2-yl)methanone], the AC50 fell in the range of 1 to 5 µM.

For `O=C(c1nnc(-c2ccc(C(F)(F)F)cn2)o1)N1CCc2[nH]cnc2[C@@H]1c1nc2c(F)cccc2s1` [Example 1847, (R)-(4-(4-fluorobenzo[d]thiazol-2-yl)-6,7-dihydro-1H-imidazo[4,5-c]pyridin-5(4H)-yl)(5-(5-(trifluoromethyl)pyridin-2-yl)-1,3,4-oxadiazol-2-yl)methanone], the AC50 was in the range of 1 to 5 µM.

With `O=C(c1nnc(-c2ccc(C(F)(F)F)cn2)o1)N1CCc2[nH]cnc2[C@H]1c1nc2c(F)cccc2s1` [Example 1848, (S)-(4-(4-fluorobenzo[d]thiazol-2-yl)-6,7-dihydro-1H-imidazo[4,5-c]pyridin-5(4H)-yl)(5-(5-(trifluoromethyl)pyridin-2-yl)-1,3,4-oxadiazol-2-yl)methanone], the AC50 was in the range of 1 to 5 µM.

Regarding `O=C(c1oc(-c2ccccn2)nc1Br)N1CCc2[nH]cnc2[C@@H]1c1nc2ccccc2s1` [Example 1849, (R)-(4-(benzo[d]thiazol-2-yl)-6,7-dihydro-1H-imidazo[4,5-c]pyridin-5(4H)-yl)(4-bromo-2-(pyridin-2-yl)oxazol-5-yl)methanone], the AC50 fell in the range of 1 to 5 µM.

In the case of `O=C(c1oc(-c2ccccn2)nc1Br)N1CCc2[nH]cnc2[C@H]1c1nc2ccccc2s1` [Example 1850], the AC50 was under 0.5 µM.

Regarding `CC1(c2nc(C(F)F)c(C(=O)N3CCc4[nH]cnc4[C@H]3c3nc4ccccc4s3)o2)CC1` [Example 1851], the concentration at half-maximal activity (AC50) was under 0.5 µM.
